This series in a line: Thermodynamic solubility of the compound in monobasic potassium phosphate buffer at pH 7.4 after 24 hrs by LC-MS/MS analysis. It is filed as physicochemical. The settings on record: read-out: Therm_solubility.

Molecules are shown by their SMILES. Converted amounts (≈) assume the structure as drawn.

Regarding `CN(c1ccc(Cl)cc1)c1ccc(C(=O)c2ccc(C(=O)C3(c4ccccc4)CCCCC3)c(C(=O)O)c2)nc1`, the solubility thermodynamic at 24 h stood at 7 µM (≈ 3.87 µg/mL).

The values are drawn from ChEMBL document CHEMBL3880387, “Bis aromatic compounds for use as LTC4 synthase inhibitors” (2013).
